Results reported in paper PMC12042115 (mLife, 2025).
Where “and” joins values, the source holds several entries; their conditions need not be identical. Equal entries are not always repeated. Where two headings read alike, the source gives them in different places.

Tested on: wild‐type BCG cells
Assay type: cell-based, M. bovis BCG
Details: for Mean Ratio (GDI5755_2d vs DMSO_2d): 2d; for Ratio: single ratios, GDI5755_3d vs DMSO_3d

O=C(Oc1ccc(Cl)cc1)c1ccc(N2CCOCC2)c([N+](=O)[O-])c1 [GDI‐5755]
Mean Ratio (GDI5755_2d vs DMSO_2d) (protein BCG_3079c A0A0H3M8N0 NADPH-dependent FMN reductase-like domain-containing protein，FMN reductase, up-regulated): 1.67 | Mean Ratio (GDI5755_2d vs DMSO_2d) (protein BCG_3185c A0A0H3M8B9 Possible dioxygenase, up-regulated): 2.02 | Mean Ratio (GDI5755_2d vs DMSO_2d) (protein BCG_3281c A0A0H3MAS0 Probable transmembrane alkane 1-monooxygenase alkB, up-regulated): 1.48 | Mean Ratio (GDI5755_2d vs DMSO_2d) (protein BCG_3298 A0A0H3MAT3 DUF1490 family protein, up-regulated): 1.92 | Mean Ratio (GDI5755_2d vs DMSO_2d) (protein BCG_3319c A0A0H3MAV3 L-lysine 6-transaminase, up-regulated): 1.48 | Mean Ratio (GDI5755_2d vs DMSO_2d) (protein BCG_3476 A0A0H3MB64 Probable dioxygenase, up-regulated): 1.55 | Mean Ratio (GDI5755_2d vs DMSO_2d) (protein BCG_3588 A0A0H3M9C1 Probable conserved membrane protein, up-regulated): 1.81 | Mean Ratio (GDI5755_2d vs DMSO_2d) (protein BCG_3590 A0A0H3MBE7 Rieske-type oxygenase, up-regulated): 1.45 | Mean Ratio (GDI5755_2d vs DMSO_2d) (protein BCG_3591 A0A0H3MID2 Uncharacterized protein,BCG_3591, up-regulated): 1.62 | Mean Ratio (GDI5755_2d vs DMSO_2d) (protein BCG_3826c A1KQ98 Putative S-adenosyl-L-methionine-dependent methyltransferase BCG_3826c, up-regulated): 1.54 | Mean Ratio (GDI5755_2d vs DMSO_2d) (protein BCG_3917c A0A0H3MJE2 Monooxygenase ethA, up-regulated): 1.44 | Mean_Ratio_GDI5755_2d-VS-WT_2d_control (s002 sheet P value, unrounded): 3.462 and 2.763 and 2.713 and 2.648 and 2.17 | Mean_Ratio_GDI5755_2d-VS-WT_2d_control (s002 sheet annot_file, c8 (rounded)): 1.08 and 0.90 and 1.06 and 0.93 and 0.81 | Mean_Ratio_GDI5755_2d-VS-WT_2d_control (s002 sheet annot_file, c9 (unrounded)): 1.083 and 0.8951 and 1.059 and 0.9258 and 0.8124 | Mean_Ratio_GDI5755_3d-VS-WT_3d_control (s003 sheet P value): 3.94 and 2.77 and 2.53 and 2.26 and 2.25 | Mean_Ratio_GDI5755_3d-VS-WT_3d_control (s003 sheet annot_file): 1.18 and 1.02 and 1.00 | Ratio (protein A0A0G2Q9F3, BCG_0030c (Rv3924c), Large ribosomal subunit protein bL34): 0.8126 and 0.7464 and 0.864 and 0.7929 | Ratio (protein A0A0H3M7L0, BCG_2659c (Rv2632c), DUF1876 domain-containing protein): 0.6783 and 0.84 and 0.8345 and 0.8579 | Ratio (protein A0A0H3M8R4, BCG_3395 (Rv1267c), Possible transcriptional regulatory protein embR2): 0.7934 and 0.8013 and 0.8041 and 0.8107 | Ratio (protein A0A0H3M499, BCG_1243 (Rv1180/Rv1181), Probable polyketide beta-ketoacyl synthase pks3): 0.7824 and 0.8155 and 0.7985 and 0.8135 | Ratio (protein A0A0H3M677, BCG_1564 (Rv1500), Probable glycosyltransferase): 0.8075 and 0.8276 and 0.7828 and 0.8014 | Ratio (protein A0A0H3MA33, BCG_1381c (Rv1320c), Possible adenylate cyclase): 0.785 and 0.7965 and 0.7852 and 0.8412 | Ratio (protein A0A0H3MBI4, BCG_2001A (Rv1962A), Antitoxin VapB35): 0.8087 and 0.8452 and 0.7652 and 0.7971 | Ratio (protein A0A0H3MBL1, BCG_3682c (Rv3624c), Hypoxanthine phosphoribosyltransferase): 0.7684 and 0.8491 and 0.778 and 0.8193 | Ratio (protein A0A0H3MDB0, BCG_2775c (Rv2759c), Ribonuclease VapC): 0.8535 and 0.7284 and 0.8794 and 0.7453 | Ratio (protein A1KPC8, BCG_3507c (Rv3441c), Phosphoglucosamine mutase): 0.7677 and 0.7655 and 0.8493 and 0.8355 | proteome downregulated (third day, 2×MIC): 49.6% | Mean_Ratio (GDI5755_3d vs DMSO_3d), protein BCG_0130 (up-regulated, A0A0H3M0N8, Mtb Rv0097, Possible oxidoreductase): 1.5 | Mean_Ratio (GDI5755_3d vs DMSO_3d), protein BCG_0176 (up-regulated, A0A0H3M1F5, Mtb MRA_0147, DUF427 domain-containing protein): 1.5 | Mean_Ratio (GDI5755_3d vs DMSO_3d), protein BCG_0623c (up-regulated, A0A0H3M1W6, Mtb Rv0578c, PE-PGRS family protein): 1.8 | Mean_Ratio (GDI5755_3d vs DMSO_3d), protein BCG_0353 (up-regulated, A0A0H3M1Y1, Mtb Rv0313, Transmembrane protein): 1.6 | Mean_Ratio (GDI5755_3d vs DMSO_3d), protein BCG_0227 (up-regulated, A0A0H3M2R5, Mtb Rv0190, Copper-sensing transcriptional repressor RicR): 1.4 | Mean_Ratio (GDI5755_3d vs DMSO_3d), protein BCG_0726c (up-regulated, A0A0H3M2T8, Mtb Rv0677c, Possible conserved membrane protein mmpS5): 1.4 | Mean_Ratio (GDI5755_3d vs DMSO_3d), protein BCG_1249 (up-regulated, A0A0H3M3D0, Mtb Rv1187, L-glutamate gamma-semialdehyde dehydrogenase): 1.6 | Mean_Ratio (GDI5755_3d vs DMSO_3d), protein BCG_1334 (up-regulated, A0A0H3M3I9, Mtb Rv1275, Lipoprotein lprC): 1.3 | Mean_Ratio (GDI5755_3d vs DMSO_3d), protein A0A0H3M3L0Rv1303 (up-regulated, A0A0H3M3L0, Conserved hypothetical transmembrane protein): 1.4 | Mean_Ratio (GDI5755_3d vs DMSO_3d), protein BCG_0507 (up-regulated, A0A0H3M3L9, Mtb Rv0467, isocitrate lyase): 1.5 | Mean_Ratio (GDI5755_3d vs DMSO_3d), protein BCG_1404c (up-regulated, A0A0H3M3N1, Mtb Rv1342c, Conserved membrane protein): 1.5 | Mean_Ratio (GDI5755_3d vs DMSO_3d), protein BCG_1053 (up-regulated, A0A0H3M3P8, Mtb MRA_1004, Uncharacterized protein): 1.5 | Mean_Ratio (GDI5755_3d vs DMSO_3d), protein BCG_1472c (up-regulated, A0A0H3M3S8, Mtb Rv1411c, Lipoarabinomannan carrier protein LprG): 1.4 | Mean_Ratio (GDI5755_3d vs DMSO_3d), protein BCG_0578c (up-regulated, A0A0H3M3U8, Mtb Rv0534c, 1,4-dihydroxy-2-naphthoate octaprenyltransferase, menA): 1.9 | Mean_Ratio (GDI5755_3d vs DMSO_3d), protein BCG_1661c (up-regulated, A0A0H3M4E4, Mtb Rv1623c, integral membrane cytochrome D ubiquinol oxidase (Subunit I) cydA): 1.6 | Mean_Ratio (GDI5755_3d vs DMSO_3d), protein BCG_1022 (up-regulated, A0A0H3M4W6, Mtb Rv0968, DUF1490 family protein): 1.5 | Mean_Ratio (GDI5755_3d vs DMSO_3d), protein BCG_1787 (up-regulated, A0A0H3M5K5, Mtb Rv1748, DUF4129 domain-containing protein): 1.4 | Mean_Ratio (GDI5755_3d vs DMSO_3d), protein BCG_1584c (up-regulated, A0A0H3M6A1, Mtb Rv1532c, Thioesterase domain-containing protein): 1.3 | Mean_Ratio (GDI5755_3d vs DMSO_3d), protein BCG_1795c (up-regulated, A0A0H3M6T8, Mtb MRA_1768B, Uncharacterized protein): 1.4 | Mean_Ratio (GDI5755_3d vs DMSO_3d), protein BCG_1998c (up-regulated, A0A0H3M7D9, Mtb Rv1959c, Toxin ParE1): 1.4 | Mean_Ratio (GDI5755_3d vs DMSO_3d), protein BCG_2583 (up-regulated, A0A0H3M7F6, Mtb Rv2560, proline and glycine rich transmembrane protein): 1.7 | Mean_Ratio (GDI5755_3d vs DMSO_3d), protein BCG_0282c (up-regulated, A0A0H3M7K8, Mtb Rv0244c, acyl-CoA dehydrogenase fadE5): 1.6 | Mean_Ratio (GDI5755_3d vs DMSO_3d), protein BCG_0287c (up-regulated, A0A0H3M7L3, Mtb Rv0249c, Succinate dehydrogenase [membrane anchor subunit]): 1.4 | Mean_Ratio (GDI5755_3d vs DMSO_3d), protein BCG_2072c (up-regulated, A0A0H3M7M3, Mtb Rv2053c, transmembrane protein): 1.6 | Mean_Ratio (GDI5755_3d vs DMSO_3d), protein BCG_2723 (up-regulated, A0A0H3M7S6, Mtb Rv2710, RNA polymerase sigma factor, sigB): 1.3 | Mean_Ratio (GDI5755_3d vs DMSO_3d), protein BCG_0422c (up-regulated, A0A0H3M7W9, Mtb Rv0384c, Chaperone protein ClpB): 1.5 | Mean_Ratio (GDI5755_3d vs DMSO_3d), protein BCG_3185c (up-regulated, A0A0H3M8B9, Mtb Rv3161c, Dioxygenase): 2.2 | Mean_Ratio (GDI5755_3d vs DMSO_3d), protein BCG_3195c (up-regulated, A0A0H3M8D0, Mtb Rv3171c, Possible non-heme haloperoxidase hpx): 1.4 | Mean_Ratio (GDI5755_3d vs DMSO_3d), protein BCG_0728c (up-regulated, A0A0H3M8M0, Mtb Rv0679c, Conserved hypothetical threonine rich protein): 1.4 | Mean_Ratio (GDI5755_3d vs DMSO_3d), protein BCG_3079c (up-regulated, A0A0H3M8N0, Mtb Rv3054c, NADPH-dependent FMN reductase-like domain-containing protein): 2.0 | Mean_Ratio (GDI5755_3d vs DMSO_3d), protein BCG_3084 (up-regulated, A0A0H3M8N5, Mtb Rv3059, Probable cytochrome P450 136 cyp136): 1.3 | Mean_Ratio (GDI5755_3d vs DMSO_3d), protein BCG_3153c (up-regulated, A0A0H3M8U1, Mtb Rv3130c, Diacylglycerol O-acyltransferase): 1.4 | Mean_Ratio (GDI5755_3d vs DMSO_3d), protein BCG_2517c (up-regulated, A0A0H3M8U9, Mtb Rv2497c, Probable pyruvate dehydrogenase E1 component (Alpha subunit) pdhA): 1.4 | Mean_Ratio (GDI5755_3d vs DMSO_3d), protein BCG_3184c (up-regulated, A0A0H3M8V5, Mtb Rv3160c, Possible transcriptional regulatory protein (Probably tetR-family)): 1.4 | Mean_Ratio (GDI5755_3d vs DMSO_3d), protein BCG_3588 (up-regulated, A0A0H3M9C1, Mtb Rv3524, Serine/threonine-protein kinase PknD(NU-6027 target)): 1.8 | Mean_Ratio (GDI5755_3d vs DMSO_3d), protein BCG_2721c (up-regulated, A0A0H3M9C3, Mtb Rv2708c, DUF3039 domain-containing protein): 1.4 | Mean_Ratio (GDI5755_3d vs DMSO_3d), protein BCG_1115 (up-regulated, A0A0H3M9F1, Mtb Rv1057, YVTN family beta-propeller repeat protein): 1.5 | Mean_Ratio (GDI5755_3d vs DMSO_3d), protein BCG_1130 (up-regulated, A0A0H3M9G5, conserved transmembrane protein): 1.5 | Mean_Ratio (GDI5755_3d vs DMSO_3d), protein BCG_2810c (up-regulated, A0A0H3M9L8, Mtb Rv2792c, Possible resolvase): 1.5
